≈ marks a conversion by molar mass, not a printed value. Structures can show the parent of a compound that is named as a salt. Where two headings read alike, the source gives them in different places.
Key:
P. aeruginosa PAO1 [1] = experiment: MIC assay in the presence of a bacterial efflux pump inhibitor (EPI); assay type: cell-based, Pseudomonas aeruginosa
Description: The ability of a compound to produce an antibiotic effect can be determined using a method as described in Example 42. […] MIC assays were conducted in accordance with Clinical and Laboratory Standards Institute (CLSI) guidelines for broth microdilution. A 96-well plate containing cation-adjusted Mueller-Hinton (CAMH broth with 2-fold serial dilution of compounds was inoculated with log-phase bacterial at 5×10^5 CFU/mL. The final volume in each well was 100 μL. Each compound was tested in duplicate. The microtiter plates were incubated in an aerobic environment for 18 hours at 37° C. Then the bacterial growth was tested by reading the plate with a VersaMax plate reader (Molecular Devices, Inc.) at 600 nm. The MIC was defined as the lowest compound concentration that inhibited 90% of bacteria growth. MIC Assays in the Presence of a Bacterial Efflux Inhibitor The EPI assay for the purposes of these studies represents a MIC assay in which the MIC of the antibiotic against the bacteria is tested in the presence of an experimental efflux pump inhibitor (EPI). The highest concentration of the EPI present in the assay typically is ½ of the intrinsic MIC of the compound. […] Using serial dilutions of the EPI, its enhancement of antibiotic activity was then evaluated. The relative EPI activity was decided by comparing the MIC of the antibiotic in the presence of the EPI compound with the intrinsic MIC of the antibiotic alone. For comparative purposes, we generally used EPIs at concentration of 12.5 and 6.25 μg/ml against varying concentration of our test antibiotic.

P. aeruginosa PAO1 [2] = experiment: Intrinsic MIC assay (CLSI broth microdilution); assay type: cell-based; settings: Pseudomonas aeruginosa, read-out: Antibiotic Activity Against P. aeruginosa Intrinsic MIC
From the text: As used herein, the term “minimum inhibitory concentration (MIC)” refers to the lowest concentration of a compound (e.g., an antibiotic) that prevents visible growth of a bacterium. Assays for measuring the MIC of a compound are known in the art, for example, as described herein. As used herein, the term “intrinsic MIC” refers the MIC of a compound (e.g., an antibiotic) for the particular bacterial species that has not been pre-exposed to the compound. Intrinsic MIC Assays MIC assays were conducted in accordance with Clinical and Laboratory Standards Institute (CLSI) guidelines for broth microdilution. A 96-well plate containing cation-adjusted Mueller-Hinton (CAMH broth with 2-fold serial dilution of compounds was inoculated with log-phase bacterial at 5×10^5 CFU/mL. The final volume in each well was 100 μL. Each compound was tested in duplicate. The microtiter plates were incubated in an aerobic environment for 18 hours at 37° C. Then the bacterial growth was tested by reading the plate with a VersaMax plate reader (Molecular Devices, Inc.) at 600 nm. The MIC was defined as the lowest compound concentration that inhibited 90% of bacteria growth. The intrinsic MIC of the experimental EPIs was tested with the method described. […] The following Gram-negative bacterial strains were included in these assays: Pseudomonas aeruginosa PAO1

E. coli 25922 = experiment: Intrinsic MIC assay (CLSI broth microdilution); assay type: cell-based, Escherichia coli; settings: read-out: Antibiotic Activity Against E. coli Intrinsic MIC
From the text: As used herein, the term “minimum inhibitory concentration (MIC)” refers to the lowest concentration of a compound (e.g., an antibiotic) that prevents visible growth of a bacterium. Assays for measuring the MIC of a compound are known in the art, for example, as described herein. As used herein, the term “intrinsic MIC” refers the MIC of a compound (e.g., an antibiotic) for the particular bacterial species that has not been pre-exposed to the compound. Intrinsic MIC Assays MIC assays were conducted in accordance with Clinical and Laboratory Standards Institute (CLSI) guidelines for broth microdilution. A 96-well plate containing cation-adjusted Mueller-Hinton (CAMH broth with 2-fold serial dilution of compounds was inoculated with log-phase bacterial at 5×10^5 CFU/mL. The final volume in each well was 100 μL. Each compound was tested in duplicate. The microtiter plates were incubated in an aerobic environment for 18 hours at 37° C. Then the bacterial growth was tested by reading the plate with a VersaMax plate reader (Molecular Devices, Inc.) at 600 nm. The MIC was defined as the lowest compound concentration that inhibited 90% of bacteria growth. The intrinsic MIC of the experimental EPIs was tested with the method described. […] The following Gram-negative bacterial strains were included in these assays: Escherichia coli ATCC 25922

[3] = P. aeruginosa PAO1, fold enhancement with 12.5 ug/ml EPI
[4] = P. aeruginosa PAO1, with 12.5 ug/ml of EPI (2S,4R)-4-(ammoniomethyl)-2-((6-(4-fluorophenyl)-1H-indole-2-carboxamido)methyl)pyrrolidin-1-ium
[5] = 18 h, P. aeruginosa PAO1, compound alone, without EPI, MIC = lowest concentration inhibiting 90% of growth
[6] = Escherichia coli, 18 h, E. coli 25922, compound alone, without EPI

Row | SMILES | Enhancement (intrinsic MIC versus MIC with EPI) (P. aeruginosa PAO1 [1]; [3]) | Antibiotic Activity Against P. aeruginosa MIC with EPI (P. aeruginosa PAO1 [1]; [4]) | MIC (P. aeruginosa PAO1 [2]; [5]) | MIC (E. coli 25922; [6]) | MIC (P. aeruginosa PAO1 [2]; PAO1, 18 h) | MIC (E. coli 25922; Escherichia coli, 25922, 18 h) | Antibiotic Activity Against P. aeruginosa MIC with EPI (P. aeruginosa PAO1 [1]) | Enhancement (intrinsic MIC versus MIC with EPI) (P. aeruginosa PAO1 [1])
1 | CC1CCc2c([nH]c3ccc(Br)cc23)C1N (stereo not shown) [Example 23, 6-Bromo-2-methyl-2,3,4,9-tetrahydro-1H-carbazol-1-amine] | (16x) | 16 µg/mL | 256 µg/mL (≈ 917 µM) | 16 µg/mL (≈ 57.3 µM) | – | – | – | –
2 | CC1(C)CCC(N)c2[nH]c3ccc(Br)cc3c21 (stereo not shown) [Example 24, 6-Bromo-4,4-dimethyl-2,3,4,9-tetrahydro-1H-carbazol-1-amine] | (4x) | 16 µg/mL | – | – | 64 µg/mL (≈ 218 µM) | 16 µg/mL (≈ 54.6 µM) | – | –
3 | CC(C)C1CCC(N)c2[nH]c3ccc(Br)cc3c21.Cl (stereo not shown) [Example 25, 6-Bromo-4-isopropyl-2,3,4,9-tetrahydro-1H-carbazol-1-amine Hydrogen Chloride Salt] | – | – | – | – | 64 µg/mL | 8 µg/mL | 16 µg/mL | (4x)
4 | CC1(C)Cc2c([nH]c3ccc(Br)cc23)C(N)C1 (stereo not shown) [Example 26, 6-Bromo-3,3-dimethyl-2,3,4,9-tetrahydro-1H-carbazol-1-amine] | (16x) | 4 µg/mL | 64 µg/mL (≈ 218 µM) | 32 µg/mL (≈ 109 µM) | – | – | – | –
5 | CCOC(=O)C1Cc2c([nH]c3ccc(Br)cc23)C(N)C1 (stereo not shown) [Example 27, Ethyl 1-amino-6-bromo-2,3,4,9-tetrahydro-1H-carbazole-3-carboxylate] | (>8x) | 32 µg/mL | > 256 µg/mL | 16 µg/mL (≈ 47.4 µM) | – | – | – | –
6 | NC1CC(C(=O)O)Cc2c1[nH]c1ccc(Br)cc21 (stereo not shown) [Example 28, 1-Amino-6-bromo-2,3,4,9-tetrahydro-1H-carb azole-3-carboxylic Acid] | (>1x) | 256 µg/mL | > 256 µg/mL | > 256 µg/mL | – | – | – | –
7 | NC1CC(CO)Cc2c1[nH]c1ccc(Br)cc21 (stereo not shown) [Example 29, (1-Amino-6-bromo-2,3,4,9-tetrahydro-1H-carbazol-3-yl)methanol] | (8x) | 32 µg/mL | 256 µg/mL (≈ 867 µM) | 64 µg/mL (≈ 217 µM) | – | – | – | –
8 | CC(C)C1Cc2c([nH]c3ccc(Br)cc23)C(N)C1 (stereo not shown) [Example 30, 6-Bromo-3-isopropyl-2,3,4,9-tetrahydro-1H-carbazol-1-amine] | (8x) | 8 µg/mL | 64 µg/mL (≈ 208 µM) | 4 µg/mL (≈ 13 µM) | – | – | – | –
9 | NC1CC(CN2CCOCC2)Cc2c1[nH]c1ccc(Br)cc21 (stereo not shown) [Example 31, 6-Bromo-3-(morpholinomethyl)-2,3,4,9-tetrahydro-1H-carbazol-1-amine] | (4x) | 64 µg/mL | 256 µg/mL (≈ 703 µM) | 64 µg/mL (≈ 176 µM) | – | – | – | –
10 | NCCNC(=O)C1Cc2c([nH]c3ccc(Br)cc23)C(N)C1 (stereo not shown) [Example 32, 1-Amino-N-(2-aminoethyl)-6-bromo-2,3,4,9-tetrahydro-1H-carb azole-3-carboxamide] | (1x) | >256 µg/mL | > 256 µg/mL | > 256 µg/mL | – | – | – | –
11 | CN(C)C(=O)C1Cc2c([nH]c3ccc(Br)cc23)C(N)C1 (stereo not shown) [Example 33, 1-Amino-6-bromo-N,N-dimethyl-2,3,4,9-tetrahydro-1H-carbazole-3-carboxamide] | (>2x) | 128 µg/mL | > 256 µg/mL | 128 µg/mL (≈ 381 µM) | – | – | – | –
12 | Cl.NC(=O)C1Cc2c([nH]c3ccc(Br)cc23)C(N)C1 (stereo not shown) [Example 34, 1-Amino-6-bromo-2,3,4,9-tetrahydro-1H-carbazole-3-carboxamide Hydrogen Chloride Salt] | – | 256 µg/mL | 256 µg/mL | 128 µg/mL | – | – | – | –
13 | NC1CC(c2ccccc2)Cc2c1[nH]c1ccc(Br)cc21 (stereo not shown) [Example 35, 6-Bromo-3-phenyl-2,3,4,9-tetrahydro-1H-carbazol-1-amine] | (>32x) | 8 µg/mL | > 256 µg/mL | 8 µg/mL (≈ 23.4 µM) | – | – | – | –
14 | CC(C)(C)C1Cc2c([nH]c3ccc(Br)cc23)C(N)C1 (stereo not shown) [Example 36, 6-Bromo-3-(tert-butyl)-2,3,4,9-tetrahydro-1H-carbazol-1-amine] | (>32x) | 8 µg/mL | > 256 µg/mL | 8 µg/mL (≈ 24.9 µM) | – | – | – | –
15 | CC(C)C1Cc2c([nH]c3ccc(Cl)c(Cl)c23)C(N)C1 (stereo not shown) [Example 37, 5,6-Dichloro-3-isopropyl-2,3,4,9-tetrahydro-1H-carbazol-1-amine] | (32x) | 4 µg/mL | 128 µg/mL (≈ 431 µM) | 4 µg/mL (≈ 13.5 µM) | – | – | – | –
16 | CC(C)C1Cc2c([nH]c3cc(Cl)c(Cl)cc23)C(N)C1 (stereo not shown) [Example 38, 6,7-Dichloro-3-isopropyl-2,3,4,9-tetrahydro-1H-carbazol-1-amine] | (>64x) | 4 µg/mL | > 256 µg/mL | 4 µg/mL (≈ 13.5 µM) | – | – | – | –
17 | NCCNC1CCCc2c1[nH]c1ccc(Br)cc21 (stereo not shown) [Example 39, N^1-(6-bromo-2,3,4,9-tetrahydro-1H-carbazol-1-yl)ethane-1,2-diamine] | – | 16 µg/mL | 32 µg/mL (≈ 104 µM) | 16 µg/mL (≈ 51.9 µM) | – | – | – | –
18 | CNCC1Cc2c([nH]c3ccc(Br)cc23)C(N)C1 (stereo not shown) [Example 41, 6-Bromo-3-((methylamino)methyl)-2,3,4,9-tetrahydro-1H-carbazol-1-amine Hydrogen Chloride Salt] | (4x) | 64 µg/mL | 128 µg/mL | 256 µg/mL | – | – | – | –

— patent publication US11458121B2, “Therapeutic compounds and methods to treat infection” (priority 2017, dated 2022)
